Here are results for six compounds from patent US5182290A (Neurogen Corporation, priority 1991, dated 1993).

Experiment [1] deals with benzodiazepine binding site. The conditions noted are these: result in words; Tallman et al., 1978; cited from earlier work.
Experiment [2] concerns the target GABAa receptor. In words: Inhibition of 3H-RO15-1788 (3H-Flumazenil) binding to rat cortical tissue (GABAa receptor assay). The procedure: Assays are carried out as described in Thomas and Tallman (J. Bio. Chem. 156: 9838-9842, J. Neurosci. 3:433-440, 1983). Rat cortical tissue is dissected and homogenized in 25 volumes (w/v) of 0.05M Tris HCl buffer (pH 7.4 at 4° C.). The tissue homogenate is centrifuged in the cold (4° C.) at 20,000×g for 20 minutes. The supernatant is decanted and the pellet is rehomogenized in the same volume of buffer and again centrifuged at 20,000× g. The supernatant is decanted and the pellet is frozen at -20° C. overnight. The pellet is then thawed and rehomogenized in 25 volume (original wt/vol) of buffer and the procedure is carried out twice. The pellet is finally resuspended in 50 volumes (w/vol of 0.05M Tris HCl buffer (pH 7.4 at […]).
Incubations contain […] of radioligand 0.5 nM (^3 H-RO15-1788[^3 H-Flumazenil] specific activity 80 Ci/mmol), drug or blocker and buffer to a total volume of […]. Incubations are carried for 30 min at 4° C. then are rapidly filtered through GFB filters to separate free and bound ligand. Filters are washed twice with fresh 0.05M Tris HCl buffer (pH 7.4 at 4° C.) and counted in a liquid scintillation counter. 1.0 mM diazepam is added to some tubes to determine nonspecific binding. Data are collected in triplicate determinations, averaged and % inhibition of total specific binding is calculated. Total Specific Binding=Total-Nonspecific. In some cases, the amounts of unlabeled drugs is varied and total displacement curves of binding are carried out. Data are converted to a form for the calculation of IC50 and Hill Coefficient (nH).

Where [3] appears, read: 3H-RO15-1788 0.5 nM, rat cortical tissue, 30 min at 4° C.

Entries after “also recorded” stand apart in the source; their conditions may differ.

Broadly, the IC50 is the concentration that gives 50% inhibition. Read a high IC50 as weaker potency in that assay.

As for `CN1CCc2cc3c(cc2[C@@H]1[C@H]1OC(=O)c2c1ccc1c2OCO1)OCO3` [(-) bicuculline], in experiment [1], the “Blockade of enhancement of benzodiazepine binding by GABA agonists” value is recorded as “much less active”.
In experiment [2] (setting [3]), `COc1cccc(-c2nc3c(=O)[nH]c4ccccc4c3o2)c1` [Compound 1, 2-(3-Methoxyphenyl)-oxazolo[4,5-c]quinolin-4(5H)-one] returned an IC50 of 600 nM.
The same measure, in the same setting: under `O=c1[nH]c2ccccc2c2oc(-c3ccccc3)nc12` [Compound 2, 2-Phenyl-oxazolo[4,5-c]quinolin-4(5H)-one] stands 95 nM.
`CN1CCc2cc3c(cc2[C@H]1[C@@H]1OC(=O)c2c1ccc1c2OCO1)OCO3` [(+) bicuculline]: the “Blockade of enhancement of benzodiazepine binding by GABA agonists” value in experiment [1] is recorded as “blocked”.
Regarding `Cn1c(=O)c2nc(-c3ccccc3)oc2c2ccccc21` [5-methyl-2-phenyl-oxazolo[4,5-c]quinolin-4(5H)-one], the IC50 in experiment [2] (prior art compound, assay described above, unit inferred) was ~50000 nM. For the same compound, in experiment [2] (prior art compound, result in words), the “activity in the assay” value was “no activity; also recorded: inactive”.
As for `COc1ccc(-c2nc3c(=O)[nH]c4ccccc4c3o2)cc1` [Compound 4, 2-(4-Methoxyphenyl)-oxazolo[4,5-c]quinolin-4(5H)-one], the IC50 in experiment [2] (setting [3]) was determined as 125 nM.
